The test system of series [1] is Escherichia coli. As to the kind of experiment: Antimicrobial activity against Escherichia coli ATCC 25922 after 24 hrs by broth microdilution method. The format is functional. Conditions: ATCC 25922, 24 h.
Series [2] has as its system Staphylococcus aureus. The series can be described thus: Antimicrobial activity against Staphylococcus aureus ATCC 29213 after 24 hrs by broth microdilution method. The format is functional. Conditions: ATCC 29213, 24 h.
The test system of series [3] is Mycobacterium tuberculosis. As to the kind of experiment: Antimicrobial activity against Mycobacterium tuberculosis H37Rv ATCC 27294 after 3 weeks by microbroth dilution method. The format is functional. The settings on record: H37Rv ATCC 27294, 504 h. In general terms: Broth dilution looks for growth in wells or tubes with falling amounts of substance.
Series [4] in a line: Selectivity index, ratio of IC50 for mouse RAW264.7 cells to MIC for Mycobacterium tuberculosis H37Rv ATCC 27294. Conditions: read-out: Selectivity Index. The format is toxicity.
Another series concerns RAW264.7. As to the kind of experiment: Cytotoxicity against mouse RAW264.7 cells after 72 hrs by MTT assay. The settings on record: RAW264.7, 72 h. The format is cell-based. A general note: Tetrazolium dyes change colour on reduction, which living cells bring about.
Series [5] can be described thus: Cytotoxicity against mouse RAW264.7 cells at 50 uM after 72 hrs by MTT assay. It is filed as cell-based. Conditions: read-out: INH.
Series [6] relates to Escherichia coli. The series can be described thus: Bactericidal activity against Escherichia coli ATCC 25922 assessed as 3 log reduction in inoculum size after 24 hrs by broth microdilution method relative to control. It is filed as functional. Conditions: ATCC 25922, 24 h.
The subject of series [7] is Staphylococcus aureus. The series can be described thus: Bactericidal activity against Staphylococcus aureus ATCC 29213 assessed as 3 log reduction in inoculum size after 24 hrs by broth microdilution method relative to control. It is filed as functional. The settings on record: ATCC 29213, 24 h.
Series [8] is described as follows: Inhibition of DNA gyrase (unknown origin) using relaxed pBR322 as substrate after 30 mins by agarose gel electrophoresis.

Consider 24 compounds from ChEMBL document CHEMBL3098015, “Synthesis and evaluation of 1-cyclopropyl-6-fluoro-1,4-dihydro-4-oxo-7-(4-(2-(4-substitutedpiperazin-1-yl)acetyl)piperazin-1-yl)quinoline-3-carboxylic acid derivatives as anti-tubercular and antibacterial agents” (Eur J Med Chem, 2014).

In brackets after ≈: the same amount, converted by molar mass.

Consider `O=C(O)c1cn(C2CC2)c2cc(N3CCN(C(=O)CN4CCN(c5ccc(F)c(F)c5)CC4)CC3)c(F)cc2c1=O`, for which the MIC99 (in general, an inhibitory concentration at the 99% level, which refers to growth in some studies and to a panel of isolates in others) is more than 225 µM in the series with Escherichia coli [1], more than 225 µM against Staphylococcus aureus [2] and more than 113 µM in [3].

For the compound `COc1cccc(N2CCN(CC(=O)N3CCN(c4cc5c(cc4F)c(=O)c(C(=O)O)cn5C4CC4)CC3)CC2)c1`, the MIC99 with Escherichia coli [1] is 3.55 µM (≈ 2 µg/mL); in the series with Staphylococcus aureus [2], 0.88 µM (≈ 0.496 µg/mL); in [3], more than 114 µM.

On to `O=C(O)c1cn(C2CC2)c2cc(N3CCN(C(=O)CN4CCN(c5ncccn5)CC4)CC3)c(F)cc2c1=O`, for which the selectivity ratio in [4] is 3.79. In the series on RAW264.7, the midpoint of inhibition, the IC50, lay at 227 µM. In addition, the cytotoxicity at 72 h, 50 µM in [5] was found to be 11%. Moreover, the MIC99 in the series on Escherichia coli [1] was determined as 3.74 µM (≈ 2 µg/mL); in the series with Staphylococcus aureus [2], 1.87 µM (≈ 1 µg/mL); in [3], 59.9 µM (≈ 32.1 µg/mL).

Turning to `CC(=O)N1CCN(CC(=O)N2CCN(c3cc4c(cc3F)c(=O)c(C(=O)O)cn4C3CC3)CC2)CC1`, the selectivity ratio in series [4] is 9.59. For the same compound, in the series with RAW264.7, the IC50 (usually the concentration needed to halve the response being measured) is 154 µM. Moreover, the cytotoxicity at 72 h, 50 µM in series [5] stood at 16.2%. The MIC99 against Escherichia coli [1] stood at 16.1 µM (≈ 8.02 µg/mL); with Staphylococcus aureus [2] it was 4.01 µM (≈ 2 µg/mL); in series [3] it was 16.1 µM (≈ 8.02 µg/mL).

As for `CO[C@H]1/C=C/O[C@@]2(C)Oc3c(C)c(O)c4c(O)c(c(/C=N/N5CCN(C)CC5)c(O)c4c3C2=O)NC(=O)/C(C)=C\C=C\[C@H](C)[C@H](O)[C@@H](C)[C@@H](O)[C@@H](C)[C@H](OC(C)=O)[C@@H]1C` [RIFAMPIN], the MIC99 in series [3] came to 0.14 µM (≈ 0.115 µg/mL).

With `COc1ccc(N2CCN(CC(=O)N3CCN(c4cc5c(cc4F)c(=O)c(C(=O)O)cn5C4CC4)CC3)CC2)cc1OC`, the MIC99 in the series with Escherichia coli [1] is 6.75 µM (≈ 4.01 µg/mL); with Staphylococcus aureus [2] it was 1.68 µM (≈ 0.997 µg/mL); in [3], more than 108 µM.

Turning to `O=C(O)c1cn(C2CC2)c2cc(N3CCN(C(=O)CN4CCN(c5ccccc5)CC4)CC3)c(F)cc2c1=O`, the MBC in the series on Escherichia coli [6] and in the series with Staphylococcus aureus [7] was 7.51 µM (≈ 4.01 µg/mL) throughout. Further, the results for the MIC99 (in the series on Escherichia coli [1]; against Staphylococcus aureus [2]; in series [3]) were 1.87 µM (≈ 0.998 µg/mL), 0.93 µM (≈ 0.496 µg/mL) and more than 120 µM, respectively.

Take `O=C(O)c1cn(C2CC2)c2cc(N3CCN(C(=O)CN4CCN(c5cccc(C(F)(F)F)c5)CC4)CC3)c(F)cc2c1=O`: the MIC99 was 6.66 µM (≈ 4.01 µg/mL) in the series with Escherichia coli [1], 0.83 µM (≈ 0.499 µg/mL) in the series on Staphylococcus aureus [2] and more than 107 µM in series [3].

`CN(C)CCN1CCN(CC(=O)N2CCN(c3cc4c(cc3F)c(=O)c(C(=O)O)cn4C3CC3)CC2)CC1`: the MIC99 against Escherichia coli [1] came to 7.58 µM (≈ 4.01 µg/mL); against Staphylococcus aureus [2], 7.58 µM (≈ 4.01 µg/mL); in series [3], 121 µM (≈ 64.2 µg/mL).

For `CN1CCN(CC(=O)N2CCN(c3cc4c(cc3F)c(=O)c(C(=O)O)cn4C3CC3)CC2)CC1`, the MIC99 against Escherichia coli [1] is 34 µM (≈ 16 µg/mL); against Staphylococcus aureus [2] it was 34 µM (≈ 16 µg/mL); in [3] it was 136 µM (≈ 64.2 µg/mL).

`O=C(O)c1cn(C2CC2)c2cc(N3CCN(C(=O)CN4CCN(c5ccccc5Cl)CC4)CC3)c(F)cc2c1=O`: the selectivity ratio in series [4] was 5.92. In addition, inhibition in the series on RAW264.7 was half-maximal at 167 µM (IC50). Further, the cytotoxicity at 72 h, 50 µM in series [5] amounted to 14.9%. Moreover, the MBC (as a rule, the lowest tested concentration that kills the bacteria rather than only halting them) turned out to be 7.06 µM (≈ 4.01 µg/mL) in the series on Escherichia coli [6] and 0.88 µM (≈ 0.5 µg/mL) in the series on Staphylococcus aureus [7]. The MIC99 came to 0.88 µM (≈ 0.5 µg/mL) against Escherichia coli [1], 0.44 µM (≈ 0.25 µg/mL) against Staphylococcus aureus [2] and 28.2 µM (≈ 16 µg/mL) in [3].

With `N#Cc1ccccc1N1CCN(CC(=O)N2CCN(c3cc4c(cc3F)c(=O)c(C(=O)O)cn4C3CC3)CC2)CC1`, the MIC99 was 3.58 µM (≈ 2 µg/mL) against Escherichia coli [1], 0.89 µM (≈ 0.497 µg/mL) with Staphylococcus aureus [2] and more than 115 µM in series [3].

As for `O=C(O)c1cn(C2CC2)c2cc(N3CCN(C(=O)CN4CCN(C(c5ccccc5)c5ccccc5)CC4)CC3)c(F)cc2c1=O`, the selectivity ratio in [4] was 3.75. Inhibition with RAW264.7 was half-maximal at 96.6 µM (IC50). Moreover, in series [5], the cytotoxicity at 72 h, 50 µM was found to be 25.9%. The MIC99 is 12.8 µM (≈ 8.01 µg/mL) against Escherichia coli [1], 0.8 µM (≈ 0.499 µg/mL) in the series with Staphylococcus aureus [2] and 25.7 µM (≈ 16 µg/mL) in [3].

Turning to `O=C(O)c1cn(C2CC2)c2cc(N3CCN(C(=O)CN4CCN(c5ccc([N+](=O)[O-])cc5)CC4)CC3)c(F)cc2c1=O`, the MIC99 is 13.8 µM (≈ 8.01 µg/mL) in the series on Escherichia coli [1], 6.92 µM (≈ 4 µg/mL) against Staphylococcus aureus [2] and more than 111 µM in series [3].

As for `N#Cc1ccc(N2CCN(CC(=O)N3CCN(c4cc5c(cc4F)c(=O)c(C(=O)O)cn5C4CC4)CC3)CC2)cc1`, the figures for the MIC99 (in the series on Escherichia coli [1]; in the series on Staphylococcus aureus [2]; in [3]) were 7.17 µM (≈ 4.01 µg/mL), 7.17 µM (≈ 4.01 µg/mL) and more than 115 µM, respectively.

`O=C(O)c1cn(C2CC2)c2cc(N3CCN(C(=O)CN4CCN(Cc5ccccc5)CC4)CC3)c(F)cc2c1=O`: the IC50 in series [8] is 7 µM; with RAW264.7 it was 161 µM. In [4], the selectivity ratio turned out to be 22. Also, the cytotoxicity at 72 h, 50 µM in [5] stood at 15.5%. Moreover, the MIC99 stood at 1.83 µM (≈ 1 µg/mL) in the series with Escherichia coli [1], 1.83 µM (≈ 1 µg/mL) against Staphylococcus aureus [2] and 7.32 µM (≈ 4.01 µg/mL) in series [3].

In the case of `Cc1cccc(N2CCN(CC(=O)N3CCN(c4cc5c(cc4F)c(=O)c(C(=O)O)cn5C4CC4)CC3)CC2)c1`, the selectivity ratio in series [4] was found to be 5.26. In the series with RAW264.7, this compound displayed an IC50 of 154 µM. Also, the cytotoxicity at 72 h, 50 µM in [5] amounted to 16.2%. In addition, the MIC99 against Escherichia coli [1] was determined as 7.32 µM (≈ 4.01 µg/mL); against Staphylococcus aureus [2] it was 1.83 µM (≈ 1 µg/mL); in series [3] it was 29.3 µM (≈ 16 µg/mL).

As to `O=C(O)c1cn(C2CC2)c2cc(N3CCN(C(=O)CN4CCN(c5ccccn5)CC4)CC3)c(F)cc2c1=O`, the MIC99 was 3.75 µM (≈ 2 µg/mL) against Escherichia coli [1], 1.87 µM (≈ 1 µg/mL) in the series on Staphylococcus aureus [2] and more than 120 µM in [3].

Turning to `O=C(O)c1cn(C2CC2)c2cc(N3CCN(C(=O)CN4CCN(c5ccc(Cl)cc5)CC4)CC3)c(F)cc2c1=O`, the MIC99 stood at 7.06 µM (≈ 4.01 µg/mL) in the series on Escherichia coli [1], 1.76 µM (≈ 1 µg/mL) in the series with Staphylococcus aureus [2] and 113 µM (≈ 64.2 µg/mL) in series [3].

For the compound `CCN1CCN(CC(=O)N2CCN(c3cc4c(cc3F)c(=O)c(C(=O)O)cn4C3CC3)CC2)CC1`, the selectivity ratio in series [4] turned out to be 5.68. This compound had an IC50 in the series with RAW264.7 of 188 µM. In addition, the cytotoxicity at 72 h, 50 µM in series [5] was 13.3%. For the same compound, the figures for the MIC99 (against Escherichia coli [1]; with Staphylococcus aureus [2]; in series [3]) were 16.5 µM (≈ 8.02 µg/mL), 16.5 µM (≈ 8.02 µg/mL) and 33 µM (≈ 16 µg/mL), respectively.

As for `O=C(O)c1cn(C2CC2)c2cc(N3CCN(C(=O)CN4CCN(c5cccc(O)c5)CC4)CC3)c(F)cc2c1=O`, the MIC99 was 3.64 µM (≈ 2 µg/mL) in the series with Escherichia coli [1], 1.82 µM (≈ 1 µg/mL) against Staphylococcus aureus [2] and more than 117 µM in series [3].

As for `CC(c1ccccc1)N1CCN(CC(=O)N2CCN(c3cc4c(cc3F)c(=O)c(C(=O)O)cn4C3CC3)CC2)CC1` (stereo not drawn), the selectivity ratio in series [4] came to 5.17. Besides, the half-inhibitory concentration (IC50) with RAW264.7 is 148 µM. In addition, in series [5], the cytotoxicity at 72 h, 50 µM is 16.9%. Besides, the values for the MIC99 (against Escherichia coli [1]; with Staphylococcus aureus [2]; in [3]) were 3.56 µM (≈ 2 µg/mL), 1.78 µM (≈ 1 µg/mL) and 28.6 µM (≈ 16 µg/mL), respectively.

For `O=C(O)c1cn(C2CC2)c2cc(N3CCN(C(=O)CN4CCN(C(c5ccc(F)cc5)c5ccc(F)cc5)CC4)CC3)c(F)cc2c1=O`, the MIC99 was more than 24.3 µM in the series on Escherichia coli [1], 1.51 µM (≈ 0.996 µg/mL) in the series with Staphylococcus aureus [2] and more than 97.2 µM in series [3].

As for `O=C(O)c1cn(C2CC2)c2cc(N3CCNCC3)c(F)cc2c1=O` [CIPROFLOXACIN], the MIC99 in the series on Escherichia coli [1] turned out to be 0.021 µM (≈ 0.00696 µg/mL); in the series with Staphylococcus aureus [2] it was 0.37 µM (≈ 0.123 µg/mL).
